Assay results from ChEMBL document CHEMBL2380203, “Structure-activity relationship of cytochrome bc1 reductase inhibitor broad spectrum antifungal ilicicolin H” (Bioorg Med Chem Lett, 2013).
Values after ≈ are worked out from the molar mass of the structure shown.

What was measured:
[1] = Inhibition of rat liver NADH:cytochrome bc1 reductase
[2] = test system: Candida albicans; test: Antifungal activity against Candida albicans MY1055 assessed as growth inhibition after 24 hrs by liquid microdilution assay; type: functional; conditions: MY1055, 24 h
[3] = Inhibition of Candida albicans MY1055 NADH:cytochrome bc1 reductase

| Compound | IC50 [1] | MIC [2] | IC50 [3] |
| --- | --- | --- | --- |
| C/C=C/[C@@H]1[C@H]2C[C@@H](C)CC[C@@H]2[C@](C)(O)[C@H]2Oc3ncc(-c4ccc(O)cc4)c(O)c3C(=O)[C@@H]12 | 1 µg/mL (≈ 2.22 µM) | > 5 µg/mL | > 1 µg/mL |
| C/C=C/[C@@H]1[C@H]2C[C@@H](COC(=O)CC)CC[C@@H]2C(C)=C[C@H]1C(=O)c1c(O)c(-c2ccc(OC(=O)CC)cc2)c[nH]c1=O | > 0.8 µg/mL | 0.125 µg/mL (≈ 0.223 µM) | 0.01 µg/mL (≈ 0.0178 µM) |
| C/C=C/[C@@H]1[C@H]2C[C@@H](C)CC[C@@H]2C(C)=C[C@H]1C(=O)c1c(O)c(-c2ccc(OC(=O)/C=C/c3ccsc3)cc2)c[nH]c1=O | > 1 µg/mL | 1 µg/mL (≈ 1.76 µM) | 0.5 µg/mL (≈ 0.878 µM) |
| C/C=C/[C@@H]1[C@H]2C[C@@H](C)CC[C@@H]2C(C)=C[C@H]1C(=O)c1c(O)c(-c2ccc(OC(=O)c3ccoc3)cc2)c[nH]c1=O | > 1 µg/mL | 0.0625 µg/mL (≈ 0.118 µM) | 0.0105 µg/mL (≈ 0.0199 µM) |
| C/C=C/[C@@H]1[C@H]2C[C@@H](C)CC[C@@H]2C(C)=C[C@H]1C(=O)c1c(OC)ncc(-c2ccc(O)cc2)c1O | > 1 µg/mL | > 1 µg/mL | 0.02 µg/mL (≈ 0.0447 µM) |
| C/C=C/[C@@H]1[C@H]2C[C@@H](C)CC[C@@H]2[C@](C)(Br)[C@H]2Oc3ncc(-c4ccc(O)c(Br)c4Br)c(O)c3C(=O)[C@@H]12 | 1 µg/mL (≈ 1.49 µM) | > 5 µg/mL | 1 µg/mL (≈ 1.49 µM) |
| C/C=C/[C@@H]1[C@H]2C[C@@H](C)CC[C@@H]2C(C)=C[C@H]1C(=O)c1c(O)c(-c2ccc(O)cc2)cn(CC)c1=O | – | 0.312 µg/mL (≈ 0.676 µM) | – |
| C/C=C/[C@@H]1[C@H]2C[C@@H](C)CC[C@@H]2C(C)=C[C@H]1C(=O)c1c(O)c(-c2ccc(OCC)cc2)c[nH]c1=O | 1 µg/mL (≈ 2.17 µM) | > 5 µg/mL | 1 µg/mL (≈ 2.17 µM) |
| C/C=C/[C@@H]1[C@H]2C[C@@H](C)CC[C@@H]2C(C)=C[C@H]1C(=O)c1c(O)c(-c2ccc(O)cc2)cn(CC(=O)OC(C)(C)C)c1=O | 1.6 µg/mL (≈ 2.92 µM) | > 5 µg/mL | > 1.6 µg/mL |
| C/C=C/[C@@H]1[C@H]2C[C@@H](C)CC[C@@H]2C(C)=C[C@H]1C(=O)c1c(O)c(-c2ccc(OC(=O)CCCCNC(=O)OC(C)(C)C)cc2)c[nH]c1=O | > 1 µg/mL | 0.25 µg/mL (≈ 0.395 µM) | 0.005 µg/mL (≈ 0.0079 µM) |
| CC1O[C@H]1[C@@H]1[C@H]2C[C@@H](C)CC[C@@H]2[C@](C)(O)[C@H]2Oc3ncc(-c4ccc(O)cc4)c(O)c3C(=O)[C@@H]12 (stereo not given in full) | 1 µg/mL (≈ 2.15 µM) | > 5 µg/mL | > 1 µg/mL |
| C/C=C/[C@@H]1[C@H]2C[C@@H](C)CC[C@@H]2C(C)=C[C@H]1C(=O)c1c(O)c(-c2ccc(OC(=O)CC)cc2)c[nH]c1=O | > 1.6 µg/mL | 0.125 µg/mL (≈ 0.255 µM) | 0.00081 µg/mL (≈ 0.00165 µM) |
| C/C=C/[C@@H]1[C@H]2C[C@@H](CO)CC[C@@H]2C(C)=C[C@H]1C(=O)c1c(O)c(-c2ccc(OC(=O)CC)cc2)c[nH]c1=O | > 0.8 µg/mL | 0.25 µg/mL (≈ 0.494 µM) | 0.008 µg/mL (≈ 0.0158 µM) |
| C/C=C/[C@@H]1[C@H]2C[C@@H](C)CC[C@@H]2C(C)=C[C@H]1C(=O)c1c(OC)c(-c2ccc(OC)cc2)cn(C)c1=O | – | > 1 µg/mL | 1 µg/mL (≈ 2.1 µM) |
| C/C=C/[C@@H]1[C@H]2C[C@@H](C)CC[C@@H]2C(C)=C[C@H]1C(=O)c1c(O)c(-c2ccc(O)cc2)cn(CC#N)c1=O | 0.8 µg/mL (≈ 1.69 µM) | 0.062 µg/mL (≈ 0.131 µM) | 0.001 µg/mL (≈ 0.00212 µM) |
| C/C=C/[C@@H]1[C@H]2C[C@@H](C)CC[C@@H]2C(C)=C[C@H]1C(=O)c1c(O)c(-c2ccc(OC(=O)Cc3ccccc3)cc2)c[nH]c1=O | 1 µg/mL (≈ 1.81 µM) | 0.25 µg/mL (≈ 0.453 µM) | 0.0005 µg/mL (≈ 0.000906 µM) |
| C/C=C/[C@@H]1[C@H]2C[C@@H](CO)CC[C@@H]2C(C)=C[C@H]1C(=O)c1c(O)c(-c2ccc(OC(=O)C3CC3)cc2)c[nH]c1=O | 0.008 µg/mL (≈ 0.0155 µM) | 0.25 µg/mL (≈ 0.483 µM) | 0.002 µg/mL (≈ 0.00386 µM) |
| C/C=C/[C@@H]1[C@H]2C[C@@H](C)CC[C@@H]2C(C)=C[C@H]1C(=O)c1c(O)c(-c2ccc(OCC(=O)O)cc2)cn(CC(=O)O)c1=O | 1 µg/mL (≈ 1.82 µM) | > 5 µg/mL | > 1 µg/mL |
| C/C=C/[C@@H]1[C@H]2C[C@@H](C)CC[C@@H]2C(C)=C[C@H]1C(=O)c1c(O)c(-c2ccc(OC(=O)c3ccccc3)cc2)c[nH]c1=O | 1 µg/mL (≈ 1.86 µM) | 1 µg/mL (≈ 1.86 µM) | 0.008 µg/mL (≈ 0.0149 µM) |
| C/C=C/[C@@H]1[C@H]2C[C@@H](C)CC[C@@H]2[C@](C)(Br)[C@H]2Oc3ncc(-c4ccc(O)cc4)c(O)c3C(=O)[C@@H]12 | 1 µg/mL (≈ 1.95 µM) | > 5 µg/mL | > 1 µg/mL |
| C/C=C/c1c(C(=O)c2c(O)c(-c3ccc(O)cc3)c[nH]c2=O)cc(C)c2c1C[C@@H](C)CC2 | – | > 1 µg/mL | – |
| C/C=C/[C@@H]1[C@H]2C[C@@H](C)CC[C@@H]2C(C)=C[C@H]1C(=O)c1c(O)c(-c2ccc(O)cc2)cn(CC(N)=O)c1=O | – | 0.031 µg/mL (≈ 0.0632 µM) | 0.04 µg/mL (≈ 0.0815 µM) |
